Data taken from paper PMC7993833, “EDP-938, a novel nucleoprotein inhibitor of respiratory syncytial virus, demonstrates potent antiviral activities in vitro and in a non-human primate model” (PLoS Pathogens, 2021).
Entries after “also recorded” stand apart in the source; their conditions may differ.

Columns and labels:
[1] = system: RSV-A2; test: RT-qPCR assay, RSV-A2 in HEp-2 cells; assay type: cell-based; conditions: human respiratory syncytial virus
Procedure: (§1) HEp-2, Vero, and BHK were seeded at 8,000 cells per well (cpw) in growth medium (Dulbecco’s Modified Eagle Medium (DMEM) with 1% GlutaMAX, 1% Penicillin/Streptomycin (P/S), 1% Non-Essential Amino Acids (NEAA), 10% Fetal Bovine Serum (FBS)) or (Minimum Essential Medium (MEM) with 10% FBS, 1% NEAA, 1% P/S) or (Eagle’s Minimum Essential Medium with L-Glutamine, with 10% FBS, 1% P/S) respectively. A549 seeded at 3,000 cpw in F-12K Kaighn’s Modification nutrient mixture with 10% FBS, 1% NEAA, 1% P/S. Cells seeded at time of infection in 96-well plates, final well volume 100μL. Compounds suspended in DMSO, serially diluted and added to wells at 0.5% final DMSO concentration. Viral stocks stabilized with 25% sucrose, previously titered using plaque assay, were added at desired MOI. Sucrose added to cells-only control wells to match percent added with virus. Unless otherwise noted, RSV-A strains were tested at 0.1 MOI and incubated for 5 days in a 37°C, 5% CO2 humidified incubator, and RSV-B at 0.5 MOI for 6 days. Cytopathic effect (CPE) determined using ATPlite (Perkin Elmer) measured with Envision luminometer. For RT-qPCR, RNA was extracted from whole well using Ambion RNAqueous-96 Automated Kit, and RT-qPCR run using Applied Biosystems TaqMan RNA-to-CT 1-Step Kit. […] All EC50s were calculated using the XLFit four-parameter logistic model 200 in Microsoft Excel.

[2] = system: RSV-A M37; test: CPE assay, RSV-A M37 in HEp-2 cells; assay type: cell-based; conditions: human respiratory syncytial virus
Procedure: as §1

[3] = system: RSV-B VR-955; test: CPE assay, RSV-B VR-955 in A549 cells; assay type: cell-based; conditions: human respiratory syncytial virus
Procedure: as §1

[4] = system: RSV-B VR-955; test: RT-qPCR assay, RSV-B VR-955 in A549 cells; assay type: cell-based; conditions: human respiratory syncytial virus
Procedure: as §1

[5] = system: RSV-A Long; test: RT-qPCR assay, RSV-A Long in Vero cells; assay type: cell-based; conditions: human respiratory syncytial virus
[6] = system: RSV-A Long; test: RT-qPCR assay, RSV-A Long in primary HBECs; assay type: cell-based; conditions: human respiratory syncytial virus, primary HBEC
[7] = system: RSV-A M37; test: RT-qPCR assay, RSV-A M37 in primary HBECs; assay type: cell-based; conditions: human respiratory syncytial virus, primary HBEC
[8] = system: RSV-A Long; test: RT-qPCR assay, RSV-A Long in primary cotton rat lung cells; assay type: cell-based; conditions: human respiratory syncytial virus, 120 h, RSV-A Long MOI 0.1, 5 days
[9] = system: HEp-2 cells; test: Cytotoxicity (ATPlite) in HEp-2 cells; assay type: cell-based, human; conditions: at up to 50 μM, 3 days
Procedure: HEp-2, A549, and CHO cells were seeded at 3,000 cpw in their respective growth medium. CHO growth medium used was RPMI medium 1640 with 10% FBS, 1% P/S, 1% GlutaMAX. HEK-293 cells seeded at 10,000 cpw in DMEM growth medium. Undifferentiated HBECs were seeded in collagen-coated 96-well plates at 7,500 cpw in appropriate growth medium. Compound added and incubated for 3 days (4 days for HBECs) as described above. Plates read with ATPlite and CC50 calculated as EC50s as described above. SI = CC50/EC50 within a cell line.

[10] = system: broad panel of other viruses; assay type: cell-based
[11] = system: RSV-A Long; test: Time-of-addition study, CPE endpoint; assay type: cell-based, respiratory syncytial virus; conditions: for EC50: human respiratory syncytial virus, read-out: EC50 for cytoprotection
Procedure: In order to help determine which step of the viral life cycle EDP-938 blocks multiple in vitro time-of-addition studies were performed. In the first study, EDP-938 was administered to cells infected with RSV-A Long at a MOI of 0.1 at 2 hours pre-infection (-2) or 2, 6, or 24 hours post-infection (hpi), and viral CPE evaluated 5 days later. […] A second time-of-addition study explored the ability of EDP-938 to protect not just a population experiencing a spreading infection, but individual cells already infected with RSV. Using a MOI of 3, which infects approximately 95% of all cells, virus was cold-adsorbed to the cells for 1 hour to synchronize infection before transfer to 37°C to induce fusion (marking the 0 hpi time point). Compound was added at times indicated and a 24 hpi RT-qPCR endpoint was employed to constrain viral replication cycle to a single complete cycle.
As above, but 8,000 HEp-2 cpw seeded 1-day pre-infection. 2h pre-infection compound or media added. Plates incubated 2h. Viral infection at 0.1 MOI, incubated 1h. Viral inoculum removed, cells washed, and media replaced with compound for -2h sample. Compound added at 2h, 6h, and 24h post-infection to appropriate plates. 5dpi cell viability calculated as described above.

[12] = system: RSV-A Long; test: In vitro combination study (CPE, Loewe additivity, CalcuSyn); assay type: cell-based, respiratory syncytial virus
Procedure: The combination effect of EDP-938 with other RSV inhibitors of different mechanisms/targets was investigated in vitro. RSV-A Long infected HEp-2 cells were treated with various concentrations of EDP-938 either alone or in combination with the fusion inhibitor GS-5806, non-nucleoside L polymerase inhibitor AZ-27, nucleoside inhibitor ALS-8112 [38], ribavirin, or palivizumab. The combination of two compounds always led to a greater inhibition than a single agent alone.
To determine whether the effect of the combination was synergistic, additive or antagonistic, the data were analyzed by the Loewe additivity model using Calcusyn software, which gave a Combination Index (CI) value at various effective concentrations of the compounds. […] As an experimental control, adding EDP-938 to itself was additive. For details see S4 Table.
As described above with 8,000 HEp-2 cpw, 0.1 MOI RSV-A Long, 5-day endpoint, and CPE readout. Compounds added in serial 1.3-fold 6-point dilutions across both X- and Y-axes of plate. Plates run in quadruplicate with one uninfected plate for cytotoxicity. Combination indexes calculated using Loewe additivity model using CalcuSyn software from Biosoft.

Question: Which results are given for `O=C1Nc2ccccc2C(c2ccccc2)=N[C@@H]1Nc1nnc(-c2ncc(C(F)(F)F)cc2N2CCOCC2)o1` [EDP-938]?
Answer: EC50 [1]: 59 ± 18 nM; EC90 [1]: 70 ± 30 nM; EC50 [2]: 28 ± 4 nM; EC90 [2]: 34 ± 10 nM; EC50 ([3]; 144 h, RSV-B VR-955 MOI 0.5, 6 days): 72 ± 9 nM; EC90 ([3]; RSV-B VR-955): 223 ± 90 nM; EC50 [4]: 83 ± 38 nM; EC90 [4]: 170 ± 53 nM; EC50 [5]: 79 ± 12 nM; EC90 [5]: 118 ± 25 nM; EC50 ([6]; 144 h, RSV-A Long MOI 0.1, 6 days): 21 ± 17 nM; EC90 ([6]; RSV-A Long): 29 ± 23 nM; EC50 ([7]; 144 h, RSV-A M37 MOI 0.1, 6 days): 23 ± 14 nM; EC90 ([7]; RSV-A M37): 36 ± 17 nM; EC50 [8]: 10.3 µM; cytotoxicity [9]: no significant cytotoxicity; activity against a broad panel of other viruses [10]: did not demonstrate significant activity; EC50 ([11]; 120 h, compound addition at -2 h, HEp-2, RSV-A Long MOI 0.1, CPE 5 days): 49 nM; EC50 ([11]; compound addition at 2 h post-infection): 55 nM; EC50 ([11]; compound addition at 6 h post-infection): 76 nM; EC50 ([11]; compound addition at 24 h post-infection): 66 nM; cytoprotective activity maintained ([11]; when given up to 24 hpi, RSV-A Long MOI 0.1): about 80%; combination effect (Combination Index) ([12]; EDP-938 added to itself, CI 0.9–1.1 additivity, <0.9 synergy, >1.1 antagonism): additive; also recorded: additivity; combination effect (Combination Index) ([12]; EDP-938 combined with ALS-8112, AZ-27, GS-5806 or palivizumab): moderate levels of synergy; combination effect (Combination Index) ([12]; EDP-938 combined with ribavirin): additivity
